We go through 1 sequence from patent US20250197864A1, “LNCRNA TRANSCRIPTS IN MELANOMAGENESIS” (The Regents of the University of California, priority 2021, published 2025).

The subject of data set [1] is LS174 colon carcinoma cell line. Nature of the data set: Cell viability assay (ATP quantitation). The data set is classed as cell-based. The settings on record: 50 nM, 5 days, vs non-targeting control. The procedure, abridged:
(§1)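 Cells (0.7-2×10^^3 per well, by doubling time) were transfected one day after seeding with esiRNA, siRNA or ASO GapmeRs at 50 nM final unless stated, using Lipofectamine 3000, with or without MEKi. Total luminescence was read 3 days (synergy) or 5 days (ASO alone) after transfection.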

Data set [2] has as its system Sk-N-AS Neuroblastoma cell line. Nature of the data set: Cell viability assay (ATP quantitation). The data set is classed as cell-based. The settings on record: 50 nM, 5 days, vs non-targeting control. In outline: as §1
Data set [3] has as its system U138-MG Glioblastoma cell line. Briefly: Cell viability assay (ATP quantitation). The data set is classed as cell-based. The note with it: 50 nM, 5 days, vs non-targeting control. The procedure, abridged:
as §1

The subject of data set [4] is U20S osteosarcoma cell line. Nature of the data set: Cell viability assay (ATP quantitation). The data set is classed as cell-based. The note with it: 50 nM, 5 days, vs non-targeting control. The procedure, abridged:
as §1

Data set [5] relates to SW480 colon carcinoma cell line. Nature of the data set: Cell viability assay (ATP quantitation). The data set is classed as cell-based. The note with it: 50 nM, 5 days, vs non-targeting control. The procedure, abridged: as §1
Data set [6] concerns MaMel30 melanoma cell line. Briefly: Cell viability assay (ATP quantitation). It is filed as cell-based. The settings on record: 50 nM, 5 days, vs non-targeting control. In outline: as §1
In data set [7] the test system is T98G Glioblastoma cell line. Briefly: Cell viability assay (ATP quantitation). The note with it: 50 nM, 5 days, vs non-targeting control. The data set is classed as cell-based. In outline:
as §1

The test system of data set [8] is Hs940.T melanoma cell line. Briefly: Cell viability assay (ATP quantitation). It is filed as cell-based. The note with it: 50 nM, 5 days, vs non-targeting control. In outline:
as §1

The test system of data set [9] is H82 lung cancer cell line. Briefly: Cell viability assay (ATP quantitation). The settings on record: 50 nM, 5 days, vs non-targeting control. The data set is classed as cell-based. In outline:
as §1

For the next data set, the system named is AV4 melanoma cell line. Briefly: Cell viability assay (ATP quantitation). It is filed as cell-based. The settings on record: 50 nM, 5 days, vs non-targeting control. In outline:
as §1

Data set [10] relates to Sk-Mel-5 melanoma cell line. Briefly: Cell viability assay (ATP quantitation). The data set is classed as cell-based. The note with it: 50 nM, 5 days, vs non-targeting control. In outline: as §1
Data set [11] deals with H1299 lung cancer cell line. Nature of the data set: Cell viability assay (ATP quantitation). The note with it: 50 nM, 5 days, vs non-targeting control. It is filed as cell-based. In outline:
as §1

The subject of data set [12] is SW1271 lung cancer cell line. Nature of the data set: Cell viability assay (ATP quantitation). The note with it: 50 nM, 5 days, vs non-targeting control. The data set is classed as cell-based. In outline: as §1
Data set [13] concerns HCT116 colon carcinoma cell line. Nature of the data set: Cell viability assay (ATP quantitation). The data set is classed as cell-based. The note with it: 50 nM, 5 days, vs non-targeting control. In outline: as §1
The subject of data set [14] is A-172 Glioblastoma cell line. Nature of the data set: Cell viability assay (ATP quantitation). It is filed as cell-based. The note with it: 50 nM, 5 days, vs non-targeting control. In outline: as §1
Data set [15] has as its system H929 multiple myeloma cell line. Briefly: Cell viability assay (ATP quantitation). The note with it: 50 nM, 5 days, vs non-targeting control. It is filed as cell-based. In outline:
as §1

Data set [16] deals with WM3060 melanoma cell line. Briefly: Cell viability assay (ATP quantitation). The settings on record: 50 nM, 5 days, vs non-targeting control. It is filed as cell-based. In outline:
as §1

In data set [17] the test system is H2228 lung cancer cell line. Briefly: Cell viability assay (ATP quantitation). The data set is classed as cell-based. The settings on record: 50 nM, 5 days, vs non-targeting control. In outline:
as §1

In data set [18] the test system is U87-MG Glioblastoma cell line. Nature of the data set: Cell viability assay (ATP quantitation). The settings on record: 50 nM, 5 days, vs non-targeting control. The data set is classed as cell-based. The procedure, abridged:
as §1

Data set [19] concerns D04 cells. Briefly: Flow cytometry apoptosis (Annexin V and propidium iodide). The data set is classed as cell-based, human. The note with it: 50 nM, 24 h, vs Control-ASO. The protocol:
To confirm activation of apoptosis and cell death in response to TRASH-ASO treatment (SEQ ID NO: 15) D04 cells were either treated with control-ASO or TRASH-ASO (50 nM) for 24 h. The cells were stained with Alexa 488 Annexin V and propidium iodide (PI) (Invitrogen™ Dead Cell Apoptosis Kits with Annexin V for Flow Cytometry Catalog number: V13241). […] (FIG. 5e)
Background: Flow cytometry measures light scatter and fluorescence of single cells or particles in a stream.

For data set [20], the system named is D04 cells. Nature of the data set: Repetition of drug treatment in surviving D04 cells (drug resistance test). The data set is classed as cell-based, human. The settings on record: TRASH-ASO 50 nM or MEKi 15 nM (or 20 nM), recovery in drug free media, five days (120 hrs). As to the method: Dependent on cell doubling time, 0.7-2×10^^3 cells were seeded in 96 well plates. 1 day after seeding cells were incubated in media with oligonucleotide concentration and/or MEKi and transfection reagent. 3 (synergy experiments) or 5 (solely ASO) days after transfection Total luminescence was measured on the SynergyHT plate reader (BioTek) using Gen5 software.
Rescuing cells that survived initial TRASH-ASO (SEQ ID NO:15) and MEKi (trametinib) treatment and providing the rescued cells with a phase of regrowth in drug free media, was followed by repetition of the preceding drug treatment. […] Incubation time was 120 hrs, n=3. (FIG. 5d).

The test system of data set [21] is gene expression in D04 melanoma cells. Nature of the data set: DAVID Functional Annotation Clustering (GO term) analysis of DE genes. Further details: species or system human. The note with it: RNA-Seq. The protocol: Differential expression (DE) analysis was done using DESeq2. Differentially expressed genes were defined by more than 1.5-fold changes (log 2 >0.58 or <−0.58) in expression with FDR<0.05. GO term analysis was done using DAVID Functional Annotation Clustering analysis.
To examine the biomolecular changes upon TRASH-inhibition in melanoma, D04 cells were treated with TRASH-ASOs (SEQ ID NO:15) and Control-ASOs and RNA was extracted and used for RNA-Seq. […] These GO terms consisted of genes encoding growth factors, tyrosine kinases, G protein coupled receptor subunits, and collagen subunits. Scatter plot diagram showing differential gene expression after TRASH-ASO treatment compared to Control-ASO treatment. (cut-off for significance was adjusted p-value <0.05). Data was obtained from RNA-Seq of D04 melanoma cells, treatment period was three days. (FIG. 5c)

For “GACTGGAGATAATTAA (gapmer, pattern not given here) [SEQ ID NO: 15, GapmeR ASO targeting AC004540.4 (TRASH), exon region of both isoforms; used for in vitro experiments]”, the cell viability decrease result in data set [1], in data set [2], in data set [3], in data set [4], in data set [5] and in data set [6] was “significant cell viability decrease” throughout. Also, the cell viability decrease entry (in data set [7]; in [8]; in data set [9]; with AV4 melanoma cell line; in data set [10]; in data set [11]) was “significant cell viability decrease” throughout. Besides, the cell viability decrease entry in [12], in [13], in [14], in [15], in data set [16] and in data set [17] was “significant cell viability decrease” throughout. In addition, the cell viability decrease result in data set [18] is “significant cell viability decrease”. The “fractions of apoptotic and dead cells (Annexin V / PI)” value in the data set on D04 cells [19] was “Increased fractions of apoptotic and dead cells”. The “cell-growth reduction on repetition of the preceding drug treatment in surviving cells” value is reported as “increased vulnerability” in the data set with D04 cells [20] (n=3, listed as SEQ ID NO:15) and “significantly increased (p=0.004) cell-growth reduction” in the data set on D04 cells [20] (n=3, listed as TRASH-ASO). Besides, the “top enriched GO term clusters associated with the down-regulated genes” value in data set [21] was ““ECM-receptor interaction” and “PI3K-AKT signaling pathway””. Also, the “top enriched GO term clusters associated with the up-regulated genes” value in data set [21] was ““protein tyrosine kinase activity” (GO: 0004713) and “Ras guanyl-nucleotide exchange factor activity” (G00005088)”.
